The results in this text go back to ChEMBL document CHEMBL1201862, “PubChem BioAssay data set” (2004).

The source made the active and inactive calls.

In general, CC50 refers to the concentration at which the toxic effect on the cells reaches its halfway point. One may read the AC50 as the concentration giving half of the maximal activity seen. As a reminder, the EC50 is the concentration giving half of the maximal effect.

The target of assay [1] is Ras and Rab interactor 1/Tyrosine-protein kinase ABL1 (Homo sapiens, UniProt P00519+Q13671). The class given is functional.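 Further: biochemical TR-FRET dose-response test measuring inhibition of binding between Rin1 and Abl proteins.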
Chain of Ras and Rab interactor 1/Tyrosine-protein kinase ABL1 (P00519 whole entry, the tested form may be a part): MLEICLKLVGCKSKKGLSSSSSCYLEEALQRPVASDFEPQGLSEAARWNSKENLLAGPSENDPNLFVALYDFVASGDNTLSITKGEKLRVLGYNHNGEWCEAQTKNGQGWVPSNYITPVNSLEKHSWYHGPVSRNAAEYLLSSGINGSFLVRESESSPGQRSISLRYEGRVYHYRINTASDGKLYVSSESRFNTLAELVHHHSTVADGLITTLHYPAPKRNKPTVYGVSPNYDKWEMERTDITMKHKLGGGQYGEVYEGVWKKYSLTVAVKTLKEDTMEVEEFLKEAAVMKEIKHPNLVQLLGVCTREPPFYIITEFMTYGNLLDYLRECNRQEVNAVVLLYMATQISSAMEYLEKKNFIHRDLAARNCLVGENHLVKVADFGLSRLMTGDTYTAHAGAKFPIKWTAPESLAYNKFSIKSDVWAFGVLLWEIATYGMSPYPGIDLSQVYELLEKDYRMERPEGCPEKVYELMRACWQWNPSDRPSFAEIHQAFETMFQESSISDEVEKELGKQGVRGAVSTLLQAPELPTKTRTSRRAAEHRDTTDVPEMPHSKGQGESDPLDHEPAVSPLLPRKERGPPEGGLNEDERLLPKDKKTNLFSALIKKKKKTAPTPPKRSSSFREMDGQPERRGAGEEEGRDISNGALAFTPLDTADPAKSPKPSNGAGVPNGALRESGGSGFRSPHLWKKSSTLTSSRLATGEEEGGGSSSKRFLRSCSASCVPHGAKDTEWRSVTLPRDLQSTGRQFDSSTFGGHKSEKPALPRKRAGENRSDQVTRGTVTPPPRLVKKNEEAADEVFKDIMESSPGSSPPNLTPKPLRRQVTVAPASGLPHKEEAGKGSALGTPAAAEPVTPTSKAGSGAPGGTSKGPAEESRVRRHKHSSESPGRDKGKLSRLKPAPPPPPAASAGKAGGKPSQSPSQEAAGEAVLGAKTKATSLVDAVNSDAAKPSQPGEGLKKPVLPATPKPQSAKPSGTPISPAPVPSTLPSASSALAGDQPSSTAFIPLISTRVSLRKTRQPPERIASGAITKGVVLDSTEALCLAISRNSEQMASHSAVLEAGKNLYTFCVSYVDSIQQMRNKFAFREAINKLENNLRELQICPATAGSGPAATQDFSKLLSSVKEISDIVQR
Chain of Ras and Rab interactor 1/Tyrosine-protein kinase ABL1 (Q13671 whole entry, the tested form may be a part): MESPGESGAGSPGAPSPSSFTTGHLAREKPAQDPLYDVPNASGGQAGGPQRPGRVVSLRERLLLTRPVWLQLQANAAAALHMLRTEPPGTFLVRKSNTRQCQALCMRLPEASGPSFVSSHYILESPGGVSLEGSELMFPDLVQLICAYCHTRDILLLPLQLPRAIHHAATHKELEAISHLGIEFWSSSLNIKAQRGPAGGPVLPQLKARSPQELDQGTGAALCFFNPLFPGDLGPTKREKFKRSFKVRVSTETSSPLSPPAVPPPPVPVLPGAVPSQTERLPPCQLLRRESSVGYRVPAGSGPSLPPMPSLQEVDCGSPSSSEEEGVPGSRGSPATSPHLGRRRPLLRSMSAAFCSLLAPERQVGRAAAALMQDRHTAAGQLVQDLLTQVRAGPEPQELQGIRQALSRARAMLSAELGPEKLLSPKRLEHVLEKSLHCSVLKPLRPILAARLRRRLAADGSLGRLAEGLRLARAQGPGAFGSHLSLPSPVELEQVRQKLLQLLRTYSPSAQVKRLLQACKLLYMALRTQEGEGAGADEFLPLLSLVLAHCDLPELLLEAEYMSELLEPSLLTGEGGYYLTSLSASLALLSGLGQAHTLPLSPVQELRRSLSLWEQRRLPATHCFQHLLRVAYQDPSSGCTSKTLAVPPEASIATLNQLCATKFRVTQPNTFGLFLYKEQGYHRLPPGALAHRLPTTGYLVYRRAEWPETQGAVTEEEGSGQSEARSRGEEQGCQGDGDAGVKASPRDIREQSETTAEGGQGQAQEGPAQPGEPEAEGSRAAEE
Assay [2] concerns the target Photoreceptor-specific nuclear receptor (Homo sapiens, UniProt Q9Y5X4). The class given is functional, cell-based.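 Further: CHO-S cells with Gal4-NCOR and VP16-NR2E3 two-hybrid luciferase reporter.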
Assay [3] in a line: viability loss in THP-1 monocytes – THP-1 cells, cytotoxicity control for Vif-APOBEC3G degradation inhibitor project, dose response (AID 1117359). The class given is functional. Particulars: THP-1.
Assay [4] deals with T1, Probable nicotinate-nucleotide adenylyltransferase (Staphylococcus aureus (strain N315), UniProt P65502). The class given is functional, Staphylococcus aureus subsp. aureus N315.
T1 sequence (P65502 whole entry): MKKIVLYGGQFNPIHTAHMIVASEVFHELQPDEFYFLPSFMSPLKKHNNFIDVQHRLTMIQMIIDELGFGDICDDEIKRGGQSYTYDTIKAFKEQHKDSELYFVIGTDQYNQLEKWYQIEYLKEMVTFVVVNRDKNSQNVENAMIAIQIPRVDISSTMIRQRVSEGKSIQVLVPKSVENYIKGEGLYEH
Assay [5] addresses T1, Probable nicotinate-nucleotide adenylyltransferase. Type of assay: functional, Staphylococcus aureus subsp. aureus N315. As to conditions: read-out: IC50_Mean.
Assay [6] concerns the target T2, Small ubiquitin-related modifier 1 (Homo sapiens, UniProt P63165). Description: SUMO1 protein interaction blockers, potency – biochemical, fluorescence polarization, uHTS hits, dose response (AID 624382). Type of assay: functional. As to conditions: read-out: IC50_Mean.
Assay [7] is described as follows: Luminescence Cell-Based Dose Retest to Confirm Inhibitors of Cancer Stem Cells. [Related pubchem assays (depositor defined):AID2717, AID2721]. Type of assay: functional. Particulars: Homo sapiens.
Assay [8] has as its target T2, Small ubiquitin-related modifier 1. Description: SUMO1 protein-protein binding blockers, potency – biochemical, FRET, dose response (AID 624383). As to conditions: read-out: IC50_Mean. Type of assay: functional.
The target of assay [9] is T3, Low molecular weight phosphotyrosine protein phosphatase (Homo sapiens, UniProt P24666).
T3 sequence (P24666 whole entry): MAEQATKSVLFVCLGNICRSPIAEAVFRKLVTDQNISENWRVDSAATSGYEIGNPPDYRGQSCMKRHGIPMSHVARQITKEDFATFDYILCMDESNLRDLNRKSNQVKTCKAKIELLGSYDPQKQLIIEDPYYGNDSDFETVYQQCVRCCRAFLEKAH
Type of assay: functional. As to conditions: read-out: IC50_Mean.

Assay [10] concerns the target T4, Adenosylmethionine-8-amino-7-oxononanoate aminotransferase (Mycobacterium tuberculosis, UniProt P9WQ81).
T4 sequence (P9WQ81 whole entry): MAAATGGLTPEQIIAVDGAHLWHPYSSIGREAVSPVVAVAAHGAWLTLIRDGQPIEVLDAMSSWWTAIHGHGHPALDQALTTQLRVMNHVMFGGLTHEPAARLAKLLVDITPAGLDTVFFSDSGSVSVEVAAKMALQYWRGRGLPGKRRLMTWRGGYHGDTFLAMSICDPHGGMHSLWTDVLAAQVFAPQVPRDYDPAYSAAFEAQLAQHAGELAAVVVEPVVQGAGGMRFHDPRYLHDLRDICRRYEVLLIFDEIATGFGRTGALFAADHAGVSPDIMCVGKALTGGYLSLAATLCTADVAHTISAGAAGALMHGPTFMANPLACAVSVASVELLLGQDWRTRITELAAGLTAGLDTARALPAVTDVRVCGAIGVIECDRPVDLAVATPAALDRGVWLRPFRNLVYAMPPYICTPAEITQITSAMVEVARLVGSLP
Description: Mycobacterium tuberculosis BioA enzyme inhibitor Measured in Biochemical System Using Plate Reader - 2163-02_Inhibitor_Dose_CherryPick_Activity. The class given is functional, Mycobacterium tuberculosis UT205.

In assay [11] the target is Genome polyprotein (dengue virus type 2, UniProt P29990). Description: flavivirus cap methylation enzyme inhibition – biochemical, confirmation dose response, primary screen (AID 588689). The class given is functional.
Chain of Genome polyprotein (P29990 2492-3391 limits assumed): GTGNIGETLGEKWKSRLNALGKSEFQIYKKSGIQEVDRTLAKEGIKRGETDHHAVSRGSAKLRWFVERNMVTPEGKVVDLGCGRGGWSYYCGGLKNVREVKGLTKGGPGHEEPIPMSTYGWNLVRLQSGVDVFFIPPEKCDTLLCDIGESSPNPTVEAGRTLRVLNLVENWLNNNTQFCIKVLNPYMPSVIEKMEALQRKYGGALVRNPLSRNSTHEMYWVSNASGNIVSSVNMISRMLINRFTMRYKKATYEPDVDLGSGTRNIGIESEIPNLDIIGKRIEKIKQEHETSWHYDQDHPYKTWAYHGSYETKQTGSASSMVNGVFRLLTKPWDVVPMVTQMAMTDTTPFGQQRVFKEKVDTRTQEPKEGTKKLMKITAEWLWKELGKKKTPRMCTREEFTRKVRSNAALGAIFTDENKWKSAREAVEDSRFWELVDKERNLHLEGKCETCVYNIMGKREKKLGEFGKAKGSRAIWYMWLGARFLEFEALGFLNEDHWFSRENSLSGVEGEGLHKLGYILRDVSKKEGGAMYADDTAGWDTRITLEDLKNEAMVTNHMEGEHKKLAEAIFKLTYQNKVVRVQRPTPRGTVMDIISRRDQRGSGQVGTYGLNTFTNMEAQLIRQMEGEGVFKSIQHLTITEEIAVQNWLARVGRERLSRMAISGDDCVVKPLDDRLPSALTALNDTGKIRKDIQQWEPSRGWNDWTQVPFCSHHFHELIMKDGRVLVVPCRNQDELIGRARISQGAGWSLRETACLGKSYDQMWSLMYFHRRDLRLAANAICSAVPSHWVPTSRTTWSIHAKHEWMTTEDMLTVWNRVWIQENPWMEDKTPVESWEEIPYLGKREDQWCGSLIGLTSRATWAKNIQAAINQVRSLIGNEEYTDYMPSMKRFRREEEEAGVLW
Assay [12] has as its target T5, Replicative DNA helicase DnaB (Mycobacterium tuberculosis, UniProt P9WMR3).
T5 sequence (P9WMR3 whole entry): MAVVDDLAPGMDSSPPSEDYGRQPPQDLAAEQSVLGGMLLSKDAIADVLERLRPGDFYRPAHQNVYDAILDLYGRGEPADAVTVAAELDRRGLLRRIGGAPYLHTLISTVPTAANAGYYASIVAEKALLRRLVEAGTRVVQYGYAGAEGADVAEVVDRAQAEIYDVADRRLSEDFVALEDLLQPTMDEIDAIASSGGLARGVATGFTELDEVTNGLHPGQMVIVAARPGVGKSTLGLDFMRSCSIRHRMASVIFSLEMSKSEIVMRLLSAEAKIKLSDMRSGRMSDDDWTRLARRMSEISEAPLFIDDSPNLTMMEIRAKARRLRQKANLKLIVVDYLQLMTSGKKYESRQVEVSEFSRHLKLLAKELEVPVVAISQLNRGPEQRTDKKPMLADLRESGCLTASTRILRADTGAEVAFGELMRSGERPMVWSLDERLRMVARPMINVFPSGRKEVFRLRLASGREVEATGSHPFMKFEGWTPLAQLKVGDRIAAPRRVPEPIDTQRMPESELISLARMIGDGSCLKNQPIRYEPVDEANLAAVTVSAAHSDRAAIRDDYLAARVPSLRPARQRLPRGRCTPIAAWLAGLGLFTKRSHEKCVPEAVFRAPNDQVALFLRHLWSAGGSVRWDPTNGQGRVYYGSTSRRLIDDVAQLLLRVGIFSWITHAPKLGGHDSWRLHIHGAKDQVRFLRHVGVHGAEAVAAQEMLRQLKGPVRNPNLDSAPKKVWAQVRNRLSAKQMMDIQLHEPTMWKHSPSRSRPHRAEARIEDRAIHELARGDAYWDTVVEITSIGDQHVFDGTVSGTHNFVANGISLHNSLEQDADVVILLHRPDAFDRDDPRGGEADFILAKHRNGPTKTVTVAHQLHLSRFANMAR
In words: DnaB intein splicing inhibitors, dose response, biochemical, cell-free fluorescence (AID 449749). Type of assay: functional.

For assay [13], the target named is T6, Protein RecA (Mycobacterium tuberculosis, UniProt P9WHJ3).
T6 sequence (P9WHJ3 whole entry): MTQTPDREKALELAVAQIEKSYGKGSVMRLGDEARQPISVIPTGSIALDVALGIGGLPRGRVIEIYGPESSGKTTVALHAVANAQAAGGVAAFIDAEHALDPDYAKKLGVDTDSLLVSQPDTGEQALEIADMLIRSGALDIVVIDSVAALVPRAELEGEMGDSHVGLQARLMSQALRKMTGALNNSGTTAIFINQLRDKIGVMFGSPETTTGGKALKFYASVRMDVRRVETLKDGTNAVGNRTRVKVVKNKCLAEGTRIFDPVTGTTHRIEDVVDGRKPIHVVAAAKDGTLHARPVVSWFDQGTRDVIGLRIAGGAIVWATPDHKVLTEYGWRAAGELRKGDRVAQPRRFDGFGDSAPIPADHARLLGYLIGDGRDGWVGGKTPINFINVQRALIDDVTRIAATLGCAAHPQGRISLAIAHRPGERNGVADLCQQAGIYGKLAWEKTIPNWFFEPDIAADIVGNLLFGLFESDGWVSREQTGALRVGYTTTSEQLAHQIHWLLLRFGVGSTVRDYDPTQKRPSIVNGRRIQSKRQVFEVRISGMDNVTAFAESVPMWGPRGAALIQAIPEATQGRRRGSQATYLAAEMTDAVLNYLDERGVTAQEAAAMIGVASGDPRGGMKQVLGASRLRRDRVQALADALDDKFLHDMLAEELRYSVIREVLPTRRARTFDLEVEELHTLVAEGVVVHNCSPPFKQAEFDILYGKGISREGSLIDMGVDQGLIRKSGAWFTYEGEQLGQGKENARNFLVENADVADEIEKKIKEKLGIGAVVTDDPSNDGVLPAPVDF
Description: Fluorescence Cell-Free Homogeneous Dose Retest to Identify Inhibitors of RecA-Intein Splicing Activity. [Related pubchem assays (depositor defined):AID2097, AID2223, AID489010, AID492950]. The class given is functional.

Assay [14] has as its system Vero. Description: viability of Vero cells under compound – cytotoxicity control for flavivirus capping enzyme inhibitors (AID 588742). Particulars: Chlorocebus sabaeus. Type of assay: functional.
A short description of assay [15]: NIH3T3 cell viability loss – ATP luminescence, mouse fibroblasts, counter-screen, dose response (AID 2010).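 Further: cells exposed to compound for about 90 hours before reading.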 The class given is functional, cell-based. (In general: A counterscreen serves to expose hits that act by an unwanted route or on another target.)
Assay [16] is described as follows: Trypanosoma cruzi growth suppression in host cells – NIH3T3 host cells, beta-gal luminescence, confirmation (AID 2044).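 Further: intracellular parasites grown in NIH/3T3 mouse fibroblasts as host cells; luminescent beta-galactosidase reporter signal from transgenic T. cruzi replicating inside host cells; inhibitors lower the luminescence signal.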 Type of assay: functional, cell-based.
The nature of assay [17]: THP-1 cell cytotoxicity, dose response, cytotoxicity control for non-replicating M. tuberculosis project (AID 489025). Type of assay: functional.
Assay [18] in a line: HepG2 cell cytotoxicity, dose response, cytotoxicity control for non-replicating M. tuberculosis project (AID 489018). Particulars: Mycobacterium tuberculosis. Type of assay: functional.
Assay [19] is described as follows: Vero E6 cell cytotoxicity, dose response, cytotoxicity control for non-replicating M. tuberculosis project, secondary assay (AID 492998). Particulars: Vero C1008. Type of assay: functional, VeroE6.
Assay [20] can be described thus: viability loss in HeLa cells – cytotoxicity control for MgcRacGAP inhibitor project, dose response (AID 624300). The class given is functional.

T2 sequence (P63165 whole entry): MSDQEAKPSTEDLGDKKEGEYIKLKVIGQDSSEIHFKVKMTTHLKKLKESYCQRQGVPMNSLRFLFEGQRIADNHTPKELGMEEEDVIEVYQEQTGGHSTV
Chain of Photoreceptor-specific nuclear receptor (Q9Y5X4 whole entry, the tested form may be a part): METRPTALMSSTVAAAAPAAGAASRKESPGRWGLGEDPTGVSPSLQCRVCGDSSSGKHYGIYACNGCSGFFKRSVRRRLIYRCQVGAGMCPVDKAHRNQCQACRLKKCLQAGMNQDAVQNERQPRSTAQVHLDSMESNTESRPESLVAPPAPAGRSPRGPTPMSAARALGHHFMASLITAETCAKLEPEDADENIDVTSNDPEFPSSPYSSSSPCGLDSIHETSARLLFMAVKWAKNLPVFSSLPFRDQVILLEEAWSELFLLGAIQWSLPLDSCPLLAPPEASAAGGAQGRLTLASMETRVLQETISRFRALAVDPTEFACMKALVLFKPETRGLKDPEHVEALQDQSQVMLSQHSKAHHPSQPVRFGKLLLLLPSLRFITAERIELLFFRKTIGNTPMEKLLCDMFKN

On to `CCOC(=O)c1ccc(NC(=O)NC2CC3CCC(C2)N3)cc1` (stereo not drawn), for which, in [1], the IC50 is 31.7 µM (inactive).

For the molecule `c1coc(CNc2ncnc3ccccc23)c1`, the IC50 in [2] was 4.34 µM (active).

For the molecule `O=C(NC(=S)Nc1cccc(S(=O)(=O)NC2=NCCC2)c1)c1cc(-c2ccco2)nc2ccccc12`, the CC50 in [3] was > 40 µM (active). Also, the IC50 in assay [4] is 10.4 µM (active); in assay [5], 35 µM (active).

As to `Cc1ccc([N+](=O)[O-])cc1-c1ccc(/C=C(\C#N)c2[nH]nc(N)c2C#N)o1`, the IC50 was > 66.6 µM (inactive) in [6] and 1.74 µM (active) in assay [8]. Moreover, in assay [7], the AC50 was 2.98 µM (active).

`Clc1ccc(Br)cc1-c1nc(-c2ccncc2)no1`: the IC50 in assay [9] was 12.2 µM (active).

As for `CCCc1cc(=O)oc2c3c(cc(OCC(=O)NCCCn4ccnc4)c12)OC(C)(C)CC3`, the AC50 in [10] was 5.93 µM (active).

Turning to `CCOC(=O)c1c(NC(=O)/C=C/C(=O)O)sc(C)c1-c1ccc(C)c(C)c1`, the IC50 in assay [11] was 75.1 µM (active). Also, the concentration at half-maximal activity (AC50) in assay [12] was 8.39 µM (active). Besides, the 50% effective concentration (EC50) in [13] was 1.89 µM (active). The CC50 in assay [14] was > 40 µM (active).

With `O=C(Nc1ccc(S(=O)(=O)Nc2nccs2)cc1)c1cc(-c2ccccc2Cl)nc2ccccc12`, the IC50 in [4] was 6.99 µM (active); in [5], 22.2 µM (active).

For `O=C(Nc1cccc(NC(=O)c2ccc(-c3ccc(Br)cc3)o2)c1)c1ccco1`, the IC50 was > 66.6 µM (inactive) in [6] and 6.92 µM (active) in assay [8]. Besides, the EC50 was > 30 µM (not active) in assay [15] and 2.73 µM (active) in assay [16].

With `COc1cc(CNCCNC(=O)c2nonc2N)ccc1OCc1ccc(Cl)cc1`, the CC50 is 24.3 µM (active) in assay [17], > 20 µM (active) in assay [18], > 20 µM (active) in [19] and 75.4 µM (active) in [20].

In the case of `Cc1cnc(NC(=O)C2CC(=O)N(c3ccc4c(c3)OCCO4)C2)s1` (stereo not drawn), in [2], the IC50 is 7.49 µM (active).

As to `O=C(Nc1ccn([C@H]2CC[C@@H](CO)O2)c(=O)n1)c1ccccc1`, in [1], the IC50 is 66.6 µM (inactive).

Turning to `O=C(c1cccc(F)c1)N1CC[C@@H]2[C@H](CO)Nc3ccc(-c4cccc(F)c4)cc3[C@@H]21`, the AC50 in assay [10] is 0.185 µM (active).

For `C[C@@H]1CN([C@H](C)CO)C(=O)Cc2cc(NC(=O)Cn3cnnn3)ccc2O[C@H]1CN(C)Cc1ccc2c(c1)OCO2`, in [10], the concentration at half-maximal activity (AC50) was 7.3 µM (active).
